Experiments:
[1] = target: T1, BTK (Homo sapiens, UniProt Q06187); test: Inhibitory activity against BTK, ADP-Glo Kinase system (Promega); assay type: biochemical; conditions: 1mM ATP; read-out: BTK IC50(nM) 1mM ATP
T1 construct: purchased Signalchem B10-10H
Summary of the method: (§1)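 IC50 values were fitted from kinase reactions run for 1 h at 30°C with either 1 mM ATP or ATP at Km (10 µM for BTK, 25 µM for ITK). Reactions used 0.2 µg/µl poly(Glu4,Tyr1), recombinant human enzyme (BTK 10 ng, ITK 4 ng per reaction) in Tris pH 7.5 Mn/Mg buffer with 1% DMSO. ADP formed was read by ADP-Glo luminescence.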

[2] = target: T2, ITK (Homo sapiens, UniProt Q08881); test: Inhibitory activity against ITK, ADP-Glo Kinase system (Promega); assay type: biochemical; conditions: 1mM ATP; read-out: ITK IC50(nM) 1mM ATP
T2 construct: purchased Signalchem I13-11G-10
T2 sequence (Q08881 1-620): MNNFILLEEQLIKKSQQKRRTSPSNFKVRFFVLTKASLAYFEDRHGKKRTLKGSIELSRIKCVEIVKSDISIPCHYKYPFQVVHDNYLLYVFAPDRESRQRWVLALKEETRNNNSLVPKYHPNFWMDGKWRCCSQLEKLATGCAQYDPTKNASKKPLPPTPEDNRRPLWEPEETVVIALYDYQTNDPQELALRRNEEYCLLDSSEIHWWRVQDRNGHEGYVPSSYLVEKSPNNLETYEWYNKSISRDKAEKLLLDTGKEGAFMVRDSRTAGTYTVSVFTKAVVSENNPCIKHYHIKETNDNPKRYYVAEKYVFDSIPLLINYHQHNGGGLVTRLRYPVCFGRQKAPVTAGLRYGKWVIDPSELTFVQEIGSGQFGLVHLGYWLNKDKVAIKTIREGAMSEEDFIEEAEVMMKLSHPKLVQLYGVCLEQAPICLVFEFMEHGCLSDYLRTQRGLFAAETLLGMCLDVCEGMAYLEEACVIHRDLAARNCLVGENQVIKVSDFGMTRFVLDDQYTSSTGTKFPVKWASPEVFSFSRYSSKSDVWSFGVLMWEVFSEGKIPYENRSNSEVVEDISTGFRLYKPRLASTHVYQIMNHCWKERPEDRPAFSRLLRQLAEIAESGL
Summary of the method: as §1

T1 sequence (Q06187 whole entry): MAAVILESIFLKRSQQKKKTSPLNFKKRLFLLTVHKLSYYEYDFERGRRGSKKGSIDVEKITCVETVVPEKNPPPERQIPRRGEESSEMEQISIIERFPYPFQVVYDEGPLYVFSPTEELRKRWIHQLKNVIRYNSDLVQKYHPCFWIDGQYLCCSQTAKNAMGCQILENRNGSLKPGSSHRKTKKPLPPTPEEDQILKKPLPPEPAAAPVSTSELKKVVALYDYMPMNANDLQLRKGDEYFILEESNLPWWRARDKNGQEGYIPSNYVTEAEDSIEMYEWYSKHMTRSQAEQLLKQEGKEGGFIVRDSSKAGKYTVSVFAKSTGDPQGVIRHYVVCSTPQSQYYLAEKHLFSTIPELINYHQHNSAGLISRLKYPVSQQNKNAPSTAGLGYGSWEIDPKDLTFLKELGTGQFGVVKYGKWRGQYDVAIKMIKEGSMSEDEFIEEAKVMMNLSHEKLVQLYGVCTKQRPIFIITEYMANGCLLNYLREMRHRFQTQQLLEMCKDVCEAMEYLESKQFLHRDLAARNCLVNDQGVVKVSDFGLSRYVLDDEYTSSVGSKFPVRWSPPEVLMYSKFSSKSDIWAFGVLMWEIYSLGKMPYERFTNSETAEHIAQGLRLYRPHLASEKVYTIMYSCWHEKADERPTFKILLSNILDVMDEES

IC50 [1] | IC50 [2] | Structure (SMILES)
> 500 nM | > 500 nM | C=CC(=O)N1CC[C@@H](Oc2nc(Nc3ncc(C)s3)cc3c2ccn3C(C)C)C1 [Example 162, (R)-1-(3-((1-isopropyl-6-((5-methylthiazol-2-yl)amino)-1H-pyrrolo[3,2-c]pyridin-4-yl)oxy)pyrrolidin-1-yl)prop-2-en-1-one]
≤ 20 nM | ≤ 20 nM | C=CC(=O)N1CC(C)(Oc2nc(Nc3ncc(C)s3)cc3c2ccn3C(C)C)C1 [Example 163, 1-(3-((1-isopropyl-6-((5-methylthiazol-2-yl)amino)-1H-pyrrolo[3,2-c]pyridin-4-yl)oxy)-3-methylazetidin-1-yl)prop-2-en-1-one]
20 to 100 nM | 100 to 500 nM | C=CC(=O)N1C[C@@H](Oc2nc(Nc3ncc(C)s3)cc3c2ccn3C2CCCC2)C[C@@H]1C [Example 164, 1-((2S,4S)-4-((1-cyclopentyl-6-((5-methylthiazol-2-yl)amino)-1H-pyrrolo[3,2-c]pyridin-4-yl)oxy)-2-methylpyrrolidin-1-yl)prop-2-en-1-one]
≤ 20 nM | ≤ 20 nM | C=CC(=O)N1CC(C)(Oc2nc(Nc3ncc(C)s3)cc3c2ccn3C2CCCC2)C1 [Example 165, 1-(3-((1-cyclopentyl-6-((5-methylthiazol-2-yl)amino)-1H-pyrrolo[3,2-c]pyridin-4-yl)oxy)-3-methylazetidin-1-yl)prop-2-en-1-one]
≤ 20 nM | ≤ 20 nM | C=CC(=O)N1CC(C)(Oc2nc(Nc3ncc(C)s3)cc3c2ccn3C)C1 [Example 166, 1-(3-methyl-3-((1-methyl-6-((5-methylthiazol-2-yl)amino)-1H-pyrrolo[3,2-c]pyridin-4-yl)oxy)azetidin-1-yl)prop-2-en-1-one]
≤ 20 nM | ≤ 20 nM | C=CC(=O)N1CC(C)(Oc2nc(Nc3ncc(C)s3)cc3c2ccn3CC2CC2)C1 [Example 167, 1-(3-((1-(cyclopropylmethyl)-6-((5-methylthiazol-2-yl)amino)-1H-pyrrolo[3,2-c]pyridin-4-yl)oxy)-3-methylazetidin-1-yl)prop-2-en-1-one]
> 500 nM | > 500 nM | C=CC(=O)N1CC(C)(Oc2nc(Nc3ncc(C)s3)cc3c2ccn3CCOC)C1 [Example 168, 1-(3-((1-(2-methoxyethyl)-6-((5-methylthiazol-2-yl)amino)-1H-pyrrolo[3,2-c]pyridin-4-yl)oxy)-3-methylazetidin-1-yl)prop-2-en-1-one]
≤ 20 nM | 20 to 100 nM | C=CC(=O)N1CCC[C@H](Oc2nc(Nc3ncc(C)s3)cc3c2ccn3CC2CCCC2)C1 [Example 169, (S)-1-(3-((1-(cyclopentylmethyl)-6-((5-methylthiazol-2-yl)amino)-1H-pyrrolo[3,2-c]pyridin-4-yl)oxy)piperidin-1-yl)prop-2-en-1-one]
≤ 20 nM | ≤ 20 nM | C=CC(=O)N1C[C@@H](F)[C@H](Oc2nc(Nc3ncc(C)s3)cc3c2ccn3CC2CCCC2)C1 [Example 170, 1-((3R,4R)-3-((1-(cyclopentylmethyl)-6-((5-methylthiazol-2-yl)amino)-1H-pyrrolo[3,2-c]pyridin-4-yl)oxy)-4-fluoropyrrolidin-1-yl)prop-2-en-1-one]
≤ 20 nM | ≤ 20 nM | C=CC(=O)N1C[C@H](F)[C@H](Oc2nc(Nc3ncc(C)s3)cc3c2ccn3CC(C)CC)C1 (stereo partly drawn) [Example 171, 1-((3S,4R)-3-fluoro-4-((1-(2-methylbutyl)-6-((5-methylthiazol-2-yl)amino)-1H-pyrrolo[3,2-c]pyridin-4-yl)oxy)pyrrolidin-1-yl)prop-2-en-1-one]
≤ 20 nM | 20 to 100 nM | C=CC(=O)N1CCC[C@H](Oc2nc(Nc3ncc(C)s3)cc3c2ccn3CC(C)CC)C1 (stereo partly drawn) [Example 172, 1-((3S)-3-((1-(2-methylbutyl)-6-((5-methylthiazol-2-yl)amino)-1H-pyrrolo[3,2-c]pyridin-4-yl)oxy)piperidin-1-yl)prop-2-en-1-one]
≤ 20 nM | ≤ 20 nM | C=CC(=O)N1C[C@@H](F)[C@H](Oc2nc(Nc3ncc(C)s3)cc3c2ccn3CC(C)CC)C1 (stereo partly drawn) [Example 173, 1-((3R,4R)-3-fluoro-4-((1-(2-methylbutyl)-6-((5-methylthiazol-2-yl)amino)-1H-pyrrolo[3,2-c]pyridin-4-yl)oxy)pyrrolidin-1-yl)prop-2-en-1-one]
≤ 20 nM | ≤ 20 nM | C=CC(=O)N1C[C@@H](F)[C@H](Oc2nc(Nc3ncc(C)s3)cc3c2ccn3C[C@H](C)CC)C1 [Example 174, 1-((3R,4R)-3-fluoro-4-((1-((R)-2-methylbutyl)-6-((5-methylthiazol-2-yl)amino)-1H-pyrrolo[3,2-c]pyridin-4-yl)oxy)pyrrolidin-1-yl)prop-2-en-1-one]
≤ 20 nM | ≤ 20 nM | C=CC(=O)N1C[C@@H](F)[C@H](Oc2nc(Nc3ncc(C)s3)cc3c2ccn3C[C@@H](C)CC)C1 [Example 175, 1-((3R,4R)-3-fluoro-4-((1-((S)-2-methylbutyl)-6-((5-methylthiazol-2-yl)amino)-1H-pyrrolo[3,2-c]pyridin-4-yl)oxy)pyrrolidin-1-yl)prop-2-en-1-one]
≤ 20 nM | ≤ 20 nM | C=CC(=O)N1CC(C)(Oc2nc(Nc3ncc(C)s3)cc3c2ccn3CCC)C1 [Example 176, 1-(3-methyl-3-((6-((5-methylthiazol-2-yl)amino)-1-propyl-1H-pyrrolo[3,2-c]pyridin-4-yl)oxy)azetidin-1-yl)prop-2-en-1-one]
≤ 20 nM | ≤ 20 nM | C=CC(=O)N1CC(C)(Oc2nc(Nc3ncc(C)s3)cc3c2ccn3CCC(C)C)C1 [Example 177, 1-(3-((1-isopentyl-6-((5-methylthiazol-2-yl)amino)-1H-pyrrolo[3,2-c]pyridin-4-yl)oxy)-3-methylazetidin-1-yl)prop-2-en-1-one]
≤ 20 nM | ≤ 20 nM | C=CC(=O)N1CC(C)(Oc2nc(Nc3ncc(C)s3)cc3c2ccn3CC2CCCC2)C1 [Example 178, 1-(3-((1-(cyclopentylmethyl)-6-((5-methylthiazol-2-yl)amino)-1H-pyrrolo[3,2-c]pyridin-4-yl)oxy)-3-methylazetidin-1-yl)prop-2-en-1-one]
≤ 20 nM | ≤ 20 nM | C=CC(=O)N1C[C@@H](Oc2nc(Nc3ncc(C)s3)cc3c2ccn3CC(C)C)C[C@@H]1C [Example 179, 1-((2S,4S)-4-((1-isobutyl-6-((5-methylthiazol-2-yl)amino)-1H-pyrrolo[3,2-c]pyridin-4-yl)oxy)-2-methylpyrrolidin-1-yl)prop-2-en-1-one]
≤ 20 nM | ≤ 20 nM | C=CC(=O)N1C[C@@H](Oc2nc(Nc3ncc(C)s3)cc3c2ccn3CC2CC2)C[C@@H]1C [Example 180, 1-((2S,4S)-4-((1-(cyclopropylmethyl)-6-((5-methylthiazol-2-yl)amino)-1H-pyrrolo[3,2-c]pyridin-4-yl)oxy)-2-methylpyrrolidin-1-yl)prop-2-en-1-one]
≤ 20 nM | ≤ 20 nM | C=CC(=O)N1C[C@H](F)[C@H](Oc2nc(Nc3ncc(C#N)s3)cc3c2ccn3CC(C)C)C1 [Example 181, 2-((4-(((3R,4S)-1-acryloyl-4-fluoropyrrolidin-3-yl)oxy)-1-isobutyl-1H-pyrrolo[3,2-c]pyridin-6-yl)amino)thiazole-5-carbonitrile]
≤ 20 nM | ≤ 20 nM | C=CC(=O)N1C[C@H](F)[C@H](Oc2nc(Nc3ncc(C(=O)NC)s3)cc3c2ccn3CC(C)C)C1 [Example 182, 2-((4-(((3R,4S)-1-acryloyl-4-fluoropyrrolidin-3-yl)oxy)-1-isobutyl-1H-pyrrolo[3,2-c]pyridin-6-yl)amino)-N-methylthiazole-5-carboxamide]
> 500 nM | > 500 nM | C=CC(=O)N1CC[C@H](Oc2nc(Nc3nccc(OC)n3)cc3c2ccn3C(C)C)C1 [Example 183, (S)-1-(3-((1-isopropyl-6-((4-methoxypyrimidin-2-yl)amino)-1H-pyrrolo[3,2-c]pyridin-4-yl)oxy)pyrrolidin-1-yl)prop-2-en-1-one]
> 500 nM | > 500 nM | C=CC(=O)N1CC[C@H](Oc2nc(Nc3nccnc3OC)cc3c2ccn3C(C)C)C1 [Example 184, (S)-1-(3-((1-isopropyl-6-((3-methoxypyrazin-2-yl)amino)-1H-pyrrolo[3,2-c]pyridin-4-yl)oxy)pyrrolidin-1-yl)prop-2-en-1-one]
≤ 20 nM | ≤ 20 nM | C=CC(=O)N1C[C@@H](Oc2nc(Nc3ncc(C)s3)cc3c2ccn3C)C[C@@H]1C [Example 185, 1-((2S,4S)-2-methyl-4-((1-methyl-6-((5-methylthiazol-2-yl)amino)-1H-pyrrolo[3,2-c]pyridin-4-yl)oxy)pyrrolidin-1-yl)prop-2-en-1-one]

Source: EP4707277A1, “NOVEL HETEROCYCLIC AMINE DERIVATIVES AND PHARMACEUTICAL COMPOSITION COMPRISING SAME” (Daewoong Pharmaceutical Co., Ltd., priority 2023, dated 2024)
